Reference: US8022036B2, “Use of thymosin alpha 1 for the treatment of immunological diseases” (Sigma-Tau Industrie Farmaceutiche Riunite S.p.A., priority 2006, dated 2011)

What was measured:
splenic CD4+ T cells = assay: Th1/T reg priming in vitro of splenic CD4+ T cells by Aspergillus-pulsed DCs (ELISPOT, flow cytometry); format: cell-based, mouse
Procedure: IDO expression and functional activity were assessed as described in Nat. Immunol. 2002; 3:1097-1101. Generation, purification and activity of T reg cells Splenic CD4+ T-cells were cocultured with conidia-pulsed DCs for 5 days […] before flow cytometry or ELISPOT assay. 1-MT (Sigma-Aldrich) was used at 2 μM. CD4+CD25+ and CD4+CD25− cells (>90% pure on FACS analysis) were separated by magnetic cell sorting from lung and TLN (J. Immunol. 2006; 176:1712-1723). For T reg cell inhibition, 5×10^4 TLN T reg cells were added to 3×10^5 CD4+CD25− cells, both from transplanted mice, stimulated with 3×10^4 autologous Aspergillus conidia-pulsed spDCs or with or 1.5×10^5 allogeneic spDCs from naïve donor mice for five days before H^3-thymidine labeling. Purified peritoneal CD 11b+Gr−1+PMN (>98% pure on FACS analysis) (2×10^6) were exposed to resting conidia in the presence of 4×10^5 CD4+CD25+ for 60 min for oxidant production or 24 hours for cytokine production (J. Immunol. 2006; 176:1712-1723).
(§1) Cytokine content was assessed by enzyme-linked immunosorbent assays (Endogen Human Elisa Kits, R&D Systems and Euroclone, Milan, Italy). AID EliSpot assay kits (Amplimedical, Buttigliera Alta, Turin, Italy) were used on purified splenic CD4+ Tcells cocultured with conidia-pulsed DCs for 5 days to enumerate cytokine-producing cells (Blood. 2003; 102:3807-3814). 1-MT was used at 2 μM.
(A) Frequency of IFN-γ-/IL-10-producing splenic CD4+ T cells activated by Aspergillus-pulsed Thymosin alpha 1-treated GM-DCs or FL-DCs. 1-MT was present in selected cultures. Plates were read with the AID-EliSpot Reader System (Amplimedical). Values are means±SE per 10^6 cells of samples from 3-5 experiments, calculated using replicates of serial twofold dilutions of cells. (*) P<0.05, conidia-exposed versus unexposed cells; (**) P<0.05, thymosin-exposed versus unexposed cells.
(B) Phenotypic analysis of CD4+ cells cultured alone (−) or as in (A). Numbers represent the percentage of double positive cells.

GM-DCs or FL-DCs = assay: Cytokine production (ELISA) by murine GM-DCs or FL-DCs with Aspergillus conidia; format: cell-based, mouse; settings: 1-MT added at 2 μM
Description: GM-DCs or FL-DCs were obtained from purified CD14+ monocytes from healthy donors or transplanted patients (1 month post-HSCT) cultured in Iscove's modified medium for 7-9 days, in the presence of rGM-CSF (Schering-Plough, Milan, Italy) and rIL-4 (Peprotech, Inalco, Milan, Italy) or FLT3-L (Immunex Corporation, Seattle, Wash.) (Blood. 2004; 103:4232-4239). DC recovery was between 20-30% reduced in cultures from transplanted patients. Murine GM-DCs or FL-DCs were obtained from bone marrow cells for 7-9 days, as described (Blood. 2004; 103:4232-4239). Thymosin alpha 1 and sThymosin alpha 1 were added to the cultures at 20 ng/mL. DCs (>99% CD11c+ consisting of 90-95% CD8-, 5-10% CD8+, and 1-5% B220+ cells) were purified from spleens (spDCs) by magnetic-activated sorting using CD11c MicroBeads and MidiMacs (Miltenyi Biotech). DC populations were further separated into CD8−, CD8+ and B220+ fractions by means of CD8 or B220 MicroBeads (Miltenyi Biotech). DCs were pulsed in serum-free Iscove medium for 24 hours with live unopsonized Aspergillus conidia or Zymosan from Saccharomyces cerevisiae (Sigma) or CpG-ODN 2006 as described.7 Phagocytosis was done as described (Blood. 2004; 103:4232-4239). Photographs were taken using a high Resolution Microscopy Color Camera AxioCam, using the AxioVision Software Rel. 3.1 (Carl Zeiss, Milan, Italy).
as §1
(B) Cytokine production (ELISA) by GM-DCs or FL-DCs cultured in serum-free medium (1×10^6 cells/mL) with unopsonized Aspergillus conidia (5×10^5/mL) for 24 hours. The IDO inhibitor 1-MT was added at 2 μM. Data are aggregated results from three independent experiments. The detection limits (pg/mL) of the assays were <16 for IL-12p70 and <12 for IL-10.

## Cn1cc(CC(N)C(=O)O)c2ccccc21 (racemic) [1-MT, 1-methyl-DL-tryptophan]
Splenic CD4+ T cells; 1-MT
  expansion of Foxp3+CTLA4+CD25+ T cells co-cultured with FL-DCs: appeared to interfere with the expansion
Splenic CD4+ T cells; IDO blockade, 1-MT 2 μM
  IFN-γ-producing cells: had no effect
  activation of IL-10-producing CD4+ cells: prevented activation
GM-DCs or FL-DCs
  IL-10 production by DCs in response to Thymosin alpha 1: blocked
